Measured values reported in patent US5110904A (Abbott Laboratories, priority 1990, dated 1992).
Starred links: 1 amine or outer side, 2 acyl side, 3 side chain; linkers in the order of their positions; H or OH if unused. Non-standard residues stand in square brackets, D forms with d. Residues, ends and D or L forms follow the SMILES beside them. X1 = CCNC[C@@H](C(=O)[*:2])N(C)[*:1]; pGlu = O=C1CC[C@@H](C(=O)O)N1; NMeS = CN[C@@H](CO)C(=O)O; Sar = CNCC(=O)O

Key:
LH release [1] = target: T1, LH release (Rattus norvegicus, UniProt P30969); assay: In vivo LH release in castrated rats; conditions: dose producing half-maximal LH release, time integrated LH response; for ED50: rat, iv, i.v., read-out: ED50 ug/kg i.v.
T1 sequence (P30969 1-327): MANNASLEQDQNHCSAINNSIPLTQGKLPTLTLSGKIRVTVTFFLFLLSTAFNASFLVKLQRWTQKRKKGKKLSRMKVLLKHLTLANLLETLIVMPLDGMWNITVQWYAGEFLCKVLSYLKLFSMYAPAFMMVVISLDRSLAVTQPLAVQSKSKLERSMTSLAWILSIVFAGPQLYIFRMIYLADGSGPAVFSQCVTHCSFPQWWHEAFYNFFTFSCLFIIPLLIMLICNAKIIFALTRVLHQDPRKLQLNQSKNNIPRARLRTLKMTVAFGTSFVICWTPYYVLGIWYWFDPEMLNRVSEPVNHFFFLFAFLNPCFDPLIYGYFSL
Description: The compound to be tested is administered to castrated rats intraveneously and the serum LH concentration at various time points is measured by RIA. The time integrated LH response is calculated and the dose producing half-maximal LH release (ED50) is reported.

LH release [2] = target: T1, LH release; assay: In vitro LH release from dissociated rat pituitary cells (agonists); type: cell-based; conditions: negative log of concentration producing half-maximal release of LH, 3 hours at 37° C.
Description: Rat pituitaries are removed from immature female rats, minced, and dissociated with collagenase/hyaluronidase. They are allowed to attach to 48-well microtiter plates for 48-72 hours, then are exposed to test compounds for 3 hours at 37° C. The medium is assayed for released LH by RIA (radioimmunoassay).

LHRH receptors = target: T2, LHRH receptors (Rattus norvegicus, UniProt P30969); assay: Radioligand receptor binding assay, rat pituitary membranes; conditions: radioiodinated [D-Leu6-des Gly10]-LHRH ethyl amide 50 pM, 2 hours at 4° C., read-out: Receptor Binding pkI (converted)
T2 sequence (P30969 1-327): T1 sequence (P30969 1-327)
Description: The radioligand (50 pM), receptors, and compounds to be tested are coincubated for 2 hours at 4° C. Bound ligand is separated from free ligand via centrifugation and aspiration.

SMILES	ED50 (LH release [1]) [µg/kg]	LH Release pD2 (LH release [2])	ED50 ug/kg i.v. (LH release [1]) [µg/kg]	Ki (LHRH receptors) [nM]
CCNC(=O)[C@@H]1CCCN1C(=O)[C@H](CCCNC(=N)N)NC(=O)[C@H](CC(C)C)NC(=O)[C@@H](CC(C)C)NC(=O)[C@H](Cc1ccc(O)cc1)NC(=O)[C@H](CO)N(C)C(=O)[C@H](Cc1c[nH]c2ccccc12)NC(=O)[C@H](Cc1c[nH]cn1)NC(=O)[C@@H]1CCC(=O)N1 [Ex. 1, (pyro)Glu-His-Trp-N-Me-Ser-Tyr-D-Leu-Leu-Arg-Pro-NHEt] ([pGlu]HW[NMeS]Y[dL]LRP-NHEt)	7.2	9.43		
CCNC[C@@H](C(=O)N[C@@H](Cc1ccc(O)cc1)C(=O)N[C@H](Cc1c[nH]c2ccccc12)C(=O)N[C@@H](CC(C)C)C(=O)N[C@@H](CCCNC(=N)N)C(=O)N1CCC[C@H]1C(=O)NCC)N(C)C(=O)[C@H](Cc1c[nH]c2ccccc12)NC(=O)[C@H](Cc1c[nH]cn1)NC(=O)CN(C)C(C)=O [Ex. 7, N-Ac-Sar-His-Trp-(3)-N-Et-(2)-N-Me-Dap-Tyr-D-Trp-Leu-Arg-Pro-NHEt] (Ac-[Sar]HW[X1]Y[dW]LRP-NHEt)		9.73	9.64	
CCNC(=O)CC[C@H](NC(=O)NCC)C(=O)N[C@@H](Cc1c[nH]cn1)C(=O)N[C@@H](Cc1c[nH]c2ccccc12)C(=O)N(C)[C@@H](CO)C(=O)N[C@@H](Cc1ccc(O)cc1)C(=O)N[C@H](Cc1c[nH]c2ccccc12)C(=O)N[C@@H](CC(C)C)C(=O)N[C@@H](CCCNC(=N)N)C(=O)N1CCC[C@H]1C(=O)NCC [Ex. 12, (2)-N-(Ethylaminocarbonyl)-(5)-N-ethylamido-Glu-His-Trp-N-Me-Ser-Tyr-D-Trp- Leu-Arg-Pro-NHEt]	9.9	9.31		1.05
CCNC(=O)[C@@H]1CCCN1C(=O)[C@H](CCCNC(=N)N)NC(=O)[C@H](CC(C)C)NC(=O)[C@@H](Cc1c[nH]c2ccccc12)NC(=O)[C@H](Cc1ccc(O)cc1)NC(=O)[C@H](CO)N(C)C(=O)[C@H](Cc1c[nH]c2ccccc12)NC(=O)[C@H](Cc1c[nH]cn1)NC(=O)[C@@H]1CCC(=O)N1 [Ex. 15, (pyro)Glu-His-Trp-N-Me-Ser-Tyr-D-Trp-Leu-Arg-Pro-NHEt]	1.38			
CC(C)C[C@H](NC(=O)CNC(=O)[C@H](Cc1ccc(O)cc1)NC(=O)[C@H](CO)NC(=O)[C@H](Cc1c[nH]c2ccccc12)NC(=O)[C@H](Cc1c[nH]cn1)NC(=O)[C@@H]1CCC(=O)N1)C(=O)N[C@@H](CCCNC(=N)N)C(=O)N1CCC[C@H]1C(=O)NCC(N)=O [LHRH, reference compound]	100			
